Laboratory results reported in US20220127247A1, “N-(PYRIDIN-2-YL)PYRIDINE-SULFONAMIDE DERIVATIVES AND THEIR USE IN THE TREATMENT OF DISEASE” (NOVARTIS AG, priority 2019, published 2022).

Target: T1, delF508-CFTR (Homo sapiens, UniProt P13569, DEL508-508)
T1 construct: expressed in transfected cells
Assay: Measurement of delF508-CFTR-HRP surface expression in CFBE41o- cells
Assay type: cell-based
Settings: for EC50: HRP-tagged delF508-CFTR in CFBE41o- cells, 24 h with compound, luminescence, 10-point curve, top 10 μM; for Emax: efficacy relative to reference compound 3-(6-(1-(2,2-difluorobenzo[d][1,3]dioxol-5-yl)cyclopropane-1-carboxamido)-3-methylpyridin-2-yl)benzoic acid, CFBE41o- cells, 24 h, read-out: DelF508-CFTR-HRP Amax %
Source text: Measurement of delF508-CFTR-HRP Surface Expression in CFBE41o-Cells
This assay quantifies the cell surface expressions of the mutant CFTR channel using an extracellular HRP tag.
A cellular assay was developed to measure surface expression of horseradish peroxidase (HRP) tagged delF508-CFTR in the human bronchial epithelial immortalized CFBE41o-cell line (Phuan, P. W., et al, (2014) Molecular Pharmacology 86:42-51). Specifically, the HRP sequence was inserted into the fourth extracellular loop of delF508-CFTR and stably expressed in CFBE41o-cells. Cells were seeded in 384 well plate at a density of 5000 cells/well and incubated at 37° C. for 12 to 24 hours in medium (Gibco MEM #11095, 10% FBS, 10 mM HEPES, […], 200 μg/mL G418, 3 μg/mL Puromycin). The delF508-CFTR-HRP expression was induced with 500 ng/mL doxycycline (Sigma D-9891, dissolved in H2O and sterile filtered) in medium and the cells were incubated at 37° C. for 48 h. Old medium was removed and fresh medium was added containing 500 ng/mL doxycycline and unknown test compound at required test concentration in DMSO, not exceeding 0.5% final DMSO concentration. The highest concentration tested was 10 μM with a 10-point concentration response curve using a 3-fold dilution. After addition of compounds, the cells were incubated for 24 h at 37° C. On the final day, cells were washed four times in PBS containing 1 mM MgCl2 and 0.1 mM CaCl2. HRP-Substrate (SuperSignal ELISA Pico, Fisher #37069) 20 μl/well was added and the luminescence signal was determined (Viewlux, Perkin Elmer). Light was emitted upon addition of exogenous HRP-Substrate only when delF508-CFTR-HRP reached the cell surface and the HRP tag was accessible to the HRP-Substrate (note: HRP-Substrate cannot cross the lipid bilayer to reach delF508-CFTR-HRP misfolded within the cell).
The median activity for the lowest concentration of the compounds on each assay plate was calculated and this value was used to normalize the signal for each well on the respective plate. Three replicates at each concentrations for every compound were run to determine one EC50. The median value was determined and used to calculate compound activities as described below. Effective half maximal values (EC50) were calculated for each compound by performing logistic regression on measured dose-response data points using the equation: […]
where “Y” is the observed activity, “Bottom” is the lowest observed value, “Top” is the highest observed value, and the “Hill coefficient” gives the largest absolute value of the slope. The curve fitting is carried out by a curve fitting program implemented at GNF using Matlab (Mathworks).
The dose response curves also were used to calculate Fold Change (FC) using the equation: […]
Compound efficacy relative to the reference compound 3-(6-(1-(2,2-difluorobenzo[d][1,3]dioxol-5-yl)cyclopropane-1-carboxamido)-3-methylpyridin-2-yl)benzoic acid was determined using the following formula: […]

T1 sequence (P13569 with tags, fused parts or gaps DEL508-508): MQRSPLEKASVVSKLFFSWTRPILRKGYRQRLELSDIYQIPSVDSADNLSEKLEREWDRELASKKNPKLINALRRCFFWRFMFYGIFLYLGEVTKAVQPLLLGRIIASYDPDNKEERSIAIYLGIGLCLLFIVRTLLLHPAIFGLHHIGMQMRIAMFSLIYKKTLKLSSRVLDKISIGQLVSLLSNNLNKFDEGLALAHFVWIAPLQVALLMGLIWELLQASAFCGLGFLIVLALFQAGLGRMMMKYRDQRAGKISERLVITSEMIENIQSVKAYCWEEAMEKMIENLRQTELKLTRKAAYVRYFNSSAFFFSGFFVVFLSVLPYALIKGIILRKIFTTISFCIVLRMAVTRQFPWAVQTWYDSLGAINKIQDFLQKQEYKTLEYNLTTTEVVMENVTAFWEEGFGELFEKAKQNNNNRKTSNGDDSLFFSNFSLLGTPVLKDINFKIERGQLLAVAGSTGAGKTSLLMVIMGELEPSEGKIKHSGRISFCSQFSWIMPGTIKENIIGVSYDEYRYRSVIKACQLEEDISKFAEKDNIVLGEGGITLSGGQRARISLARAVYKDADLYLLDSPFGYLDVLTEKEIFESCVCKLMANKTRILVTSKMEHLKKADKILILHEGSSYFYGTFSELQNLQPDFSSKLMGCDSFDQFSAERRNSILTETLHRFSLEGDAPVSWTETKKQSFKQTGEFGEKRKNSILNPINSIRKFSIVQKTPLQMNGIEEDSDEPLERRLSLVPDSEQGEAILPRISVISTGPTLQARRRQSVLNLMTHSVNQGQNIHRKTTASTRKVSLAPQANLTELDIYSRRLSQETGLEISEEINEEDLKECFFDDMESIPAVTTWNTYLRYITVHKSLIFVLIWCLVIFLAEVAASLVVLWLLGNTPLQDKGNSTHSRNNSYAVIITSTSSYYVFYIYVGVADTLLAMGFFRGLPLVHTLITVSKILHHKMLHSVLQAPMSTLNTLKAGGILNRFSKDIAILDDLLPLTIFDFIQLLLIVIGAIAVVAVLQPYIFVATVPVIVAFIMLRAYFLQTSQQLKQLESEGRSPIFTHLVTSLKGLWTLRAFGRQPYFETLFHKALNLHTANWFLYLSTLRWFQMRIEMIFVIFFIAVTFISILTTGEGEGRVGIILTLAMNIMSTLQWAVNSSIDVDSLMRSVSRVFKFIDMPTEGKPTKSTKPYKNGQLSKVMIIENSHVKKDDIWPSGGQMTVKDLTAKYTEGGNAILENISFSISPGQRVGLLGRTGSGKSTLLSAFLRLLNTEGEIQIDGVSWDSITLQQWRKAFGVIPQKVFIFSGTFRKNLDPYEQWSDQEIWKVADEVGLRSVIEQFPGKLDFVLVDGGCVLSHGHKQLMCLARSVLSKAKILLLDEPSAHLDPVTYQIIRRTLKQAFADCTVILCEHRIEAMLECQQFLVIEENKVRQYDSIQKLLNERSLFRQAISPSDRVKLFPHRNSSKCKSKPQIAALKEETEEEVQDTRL

EC50 [µM] | Emax [%] | SMILES
3.26 | 257 | O=C(O)CCNc1cccc(S(=O)(=O)Nc2ccc(C(F)(F)F)c(-c3ccccc3C3CC3)n2)n1 [Compound 39, 3-((6-(N-(6-(2-cyclopropylphenyl)-5-(trifluoromethyl)pyridin-2-yl)sulfamoyl)pyridin-2-yl)amino)propanoic Acid]
2.53 | 314 | O=C(O)CCCNc1cccc(S(=O)(=O)Nc2ccc(C(F)(F)F)c(-c3ccccc3C3CC3)n2)n1 [Compound 40, 4-((6-(N-(6-(2-cyclopropylphenyl)-5-(trifluoromethyl)pyridin-2-yl)sulfamoyl)pyridin-2-yl)amino)butanoic Acid]
1.48 | – | CN(CCCC(=O)O)c1cccc(S(=O)(=O)Nc2ccc(C(F)(F)F)c(-c3ccccc3C3CC3)n2)n1 [Compound 41, 4-((6-(N-(6-(2-cyclopropylphenyl)-5-(trifluoromethyl)pyridin-2-yl)sulfamoyl)pyridin-2-yl)(methyl)amino)butanoic Acid]
2.67 | 507 | O=C(O)CCCCNc1cccc(S(=O)(=O)Nc2ccc(C(F)(F)F)c(-c3ccccc3C3CC3)n2)n1 [Compound 42, 5-((6-(N-(6-(2-cyclopropylphenyl)-5-(trifluoromethyl)pyridin-2-yl)sulfamoyl)pyridin-2-yl)amino)pentanoic Acid]
2.37 | 407 | Cc1ccccc1-c1nc(NS(=O)(=O)c2cccc(NCCCCC(=O)O)n2)ccc1C(F)(F)F [Compound 43, 5-((6-(N-(6-(o-tolyl)-5-(trifluoromethyl)pyridin-2-yl)sulfamoyl)pyridin-2-yl)amino)pentanoic Acid]
1.52 | – | CC(C)c1ccccc1-c1nc(NS(=O)(=O)c2cccc(N(C)CCC(=O)O)n2)ccc1C(F)(F)F [Compound 44, 3-((6-(N-(6-(2-isopropylphenyl)-5-(trifluoromethyl)pyridin-2-yl)sulfamoyl)pyridin-2-yl)(methyl)amino)propanoic Acid]
1.57 | 598 | Cc1ccc(F)cc1-c1nc(NS(=O)(=O)c2cccc(N(C)CC(C)(C)C(=O)O)n2)ccc1C(F)(F)F [Compound 45, 3-((6-(N-(6-(5-fluoro-2-methylphenyl)-5-(trifluoromethyl)pyridin-2-yl)sulfamoyl)pyridin-2-yl)(methyl)amino)-2,2-dimethylpropanoic Acid]
1.81 | 493 | Cc1ccccc1-c1nc(NS(=O)(=O)c2cccc(N(C)CC(C)(C)C(=O)O)n2)ccc1C(F)(F)F [Compound 46, 2,2-dimethyl-3-(methyl(6-(N-(6-(o-tolyl)-5-(trifluoromethyl)pyridin-2-yl)sulfamoyl)pyridin-2-yl)amino)propanoic Acid]
1.82 | 496 | Cc1c(F)cccc1-c1nc(NS(=O)(=O)c2cccc(N(C)CC(C)(C)C(=O)O)n2)ccc1C(F)(F)F [Compound 47, 3-((6-(N-(6-(3-fluoro-2-methylphenyl)-5-(trifluoromethyl)pyridin-2-yl)sulfamoyl)pyridin-2-yl)(methyl)amino)-2,2-dimethylpropanoic Acid]
2.04 | 513 | Cc1ccc(F)cc1-c1nc(NS(=O)(=O)c2cccc(N(C)CCC(=O)O)n2)ccc1C(F)(F)F [Compound 48, 3-((6-(N-(6-(5-fluoro-2-methylphenyl)-5-(trifluoromethyl)pyridin-2-yl)sulfamoyl)pyridin-2-yl)(methyl)amino)propanoic Acid]
2.03 | 557 | Cc1c(F)cccc1-c1nc(NS(=O)(=O)c2cccc(N(C)CCC(=O)O)n2)ccc1C(F)(F)F [Compound 49, 3-((6-(N-(6-(3-fluoro-2-methylphenyl)-5-(trifluoromethyl)pyridin-2-yl)sulfamoyl)pyridin-2-yl)(methyl)amino)propanoic Acid]
2.1 | 867 | Cc1c(F)cccc1-c1nc(NS(=O)(=O)c2cccc(N3CCCC(C)(CC(=O)O)C3)n2)ccc1C(F)(F)F (centres unmarked) [Compound 50, 2-(1-(6-(N-(6-(3-fluoro-2-methylphenyl)-5-(trifluoromethyl)pyridin-2-yl)sulfamoyl)pyridin-2-yl)-3-methylpiperidin-3-yl)acetic Acid]
1.6 | – | Cc1ccccc1-c1nc(NS(=O)(=O)c2cccc(N3CCCC(C)(CC(=O)O)C3)n2)ccc1C(F)(F)F (centres unmarked) [Compound 51, 2-(3-methyl-1-(6-(N-(6-(o-tolyl)-5-(trifluoromethyl)pyridin-2-yl)sulfamoyl)pyridin-2-yl)piperidin-3-yl)acetic Acid]
1.49 | – | Cc1ccc(F)cc1-c1nc(NS(=O)(=O)c2cccc(N3CCCC(C)(CC(=O)O)C3)n2)ccc1C(F)(F)F (centres unmarked) [Compound 52, 2-(1-(6-(N-(6-(5-fluoro-2-methylphenyl)-5-(trifluoromethyl)pyridin-2-yl)sulfamoyl)pyridin-2-yl)-3-methylpiperidin-3-yl)acetic Acid]
1.78 | 411 | Cc1ccccc1-c1nc(NS(=O)(=O)c2cccc(N3CCC(C)(CC(=O)O)C3)n2)ccc1C(F)(F)F (centres unmarked) [Compound 53, 2-(3-methyl-1-(6-(N-(6-(o-tolyl)-5-(trifluoromethyl)pyridin-2-yl)sulfamoyl)pyridin-2-yl)pyrrolidin-3-yl)acetic Acid]
2 | 369 | Cc1c(F)cccc1-c1nc(NS(=O)(=O)c2cccc(N3CCC(C)(CC(=O)O)C3)n2)ccc1C(F)(F)F (centres unmarked) [Compound 54, 2-(1-(6-(N-(6-(3-fluoro-2-methylphenyl)-5-(trifluoromethyl)pyridin-2-yl)sulfamoyl)pyridin-2-yl)-3-methylpyrrolidin-3-yl)acetic Acid]
1.68 | 457 | Cc1ccc(F)cc1-c1nc(NS(=O)(=O)c2cccc(N3CCC(C)(CC(=O)O)C3)n2)ccc1C(F)(F)F (centres unmarked) [Compound 55, 2-(1-(6-(N-(6-(5-fluoro-2-methylphenyl)-5-(trifluoromethyl)pyridin-2-yl)sulfamoyl)pyridin-2-yl)-3-methylpyrrolidin-3-yl)acetic Acid]
1.97 | – | C=Cc1ccccc1-c1nc(NS(=O)(=O)c2cccc(N3CCC[C@H](CC(=O)O)C3)n2)ccc1C(F)(F)F [Compound 57, (R)-2-(1-(6-(N-(5-(trifluoromethyl)-6-(2-vinylphenyl)pyridin-2-yl)sulfamoyl)pyridin-2-yl)piperidin-3-yl)acetic Acid]
2.37 | – | C=Cc1ccccc1-c1nc(NS(=O)(=O)c2cccc(N3CCC[C@@H](CC(=O)O)C3)n2)ccc1C(F)(F)F [Compound 58, (S)-2-(1-(6-(N-(5-(trifluoromethyl)-6-(2-vinylphenyl)pyridin-2-yl)sulfamoyl)pyridin-2-yl)piperidin-3-yl)acetic Acid]
2.07 | 920 | Cc1ccccc1-c1nc(NS(=O)(=O)c2cccc(N3CCC[C@H](CC(=O)O)C3)n2)ccc1C(F)(F)F [Compound 59, (R)-2-(1-(6-(N-(6-(o-tolyl)-5-(trifluoromethyl)pyridin-2-yl)sulfamoyl)pyridin-2-yl)piperidin-3-yl)acetic Acid]
3.56 | 736 | CCN(CCC(=O)O)c1cccc(S(=O)(=O)Nc2ccc(C(F)(F)F)c(-c3cc(F)ccc3C)n2)n1 [Compound 61, 3-(ethyl(6-(N-(6-(5-fluoro-2-methylphenyl)-5-(trifluoromethyl)pyridin-2-yl)sulfamoyl)pyridin-2-yl)amino)propanoic Acid]
1.76 | – | Cc1ccc(F)cc1-c1nc(NS(=O)(=O)c2cccc(N(CCC(=O)O)CC3CC3)n2)ccc1C(F)(F)F [Compound 69, 3-((cyclopropylmethyl)(6-(N-(6-(5-fluoro-2-methylphenyl)-5-(trifluoromethyl)pyridin-2-yl)sulfamoyl)pyridin-2-yl)amino)propanoic Acid]
1.39 | – | Cc1ccccc1-c1nc(NS(=O)(=O)c2cccc(N3CCCC(CCC(=O)O)C3)n2)ccc1C(F)(F)F (centres unmarked) [Compound 73, 3-(1-(6-(N-(6-(o-tolyl)-5-(trifluoromethyl)pyridin-2-yl)sulfamoyl)pyridin-2-yl)piperidin-3-yl)propanoic acid]
